Experimental data: patent US20190375708A1 (VenatoRx Pharmaceuticals, Inc., priority 2018, published 2019)
pEC50: −log10 of the molar value.

Key:
[1] = test system: HBV replication in HepAD38 cells; test: Anti-HBV replication assay in HepAD38 cells (QPCR of extracellular HBV DNA); assay type: cell-based, HBV (genotype D, serotype ayw); conditions: Hepatitis B virus, 168 h, 7 days incubation, extracellular HBV DNA by QPCR, read-out: Anti-HBV EC50
Summary of the method: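 HepAD38 cells (HepG2 carrying a tet-repressible HBV genotype D genome) were seeded in tetracycline-free medium and treated next day with compound […] for 7 days. Supernatant HBV DNA was measured by QPCR against a standard curve; EC50 came from 4-parameter fits of inhibition versus DMSO control.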

[2] = In vitro cytotoxicity assay (MTT cell viability) in HepG2 cells; assay type: cell-based, human; conditions: human
Summary of the method: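 Using MTT conversion as the viability measure, HepG2 cells were incubated with compounds for 7 days (30 μM to 1.0 nM). Absorbance at 492 nm was normalized to vehicle and fitted to give CC50.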

With `Cc1cc(NC(=O)c2c(C)c(C(=O)C(=O)Nc3ccn(CCO)n3)n(C)c2C)ccc1F` [Example 307, N-(4-fluoro-3-methylphenyl)-5-(2-((1-(2-hydroxyethyl)-1H-pyrazol-3-yl)amino)-2-oxoacetyl)-1,2,4-trimethyl-1H-pyrrole-3-carboxamide] the pEC50 [1] was > 7.30 and the CC50 at 7 days [2] was > 30 µM.
Compound `CC(C)(CO)CNC(=O)C(=O)c1c(Cl)c(C(=O)Nc2ccc(F)c(Cl)c2)c2n1CCC2` [Example 556, 6-chloro-N-(3-chloro-4-fluorophenyl)-5-(2-((3-hydroxy-2,2-dimethylpropyl)amino)-2-oxoacetyl)-2,3-dihydro-1H-pyrrolizine-7-carboxamide] has a pEC50 [1] of 6.30 to 7.30 and a CC50 at 7 days [2] of 5 to 30 µM.
In the case of `Cc1c(C(=O)Nc2ccnc(Cl)c2)c(C)n(C)c1C(=O)C(=O)NC(C)(C)CO` [Example 190, N-(2-chloropyridin-4-yl)-5-(2-((1-hydroxy-2-methylpropan-2-yl)amino)-2-oxoacetyl)-1,2,4-trimethyl-1H-pyrrole-3-carboxamide], the pEC50 [1] was > 7.30 and the CC50 at 7 days [2] was > 30 µM.
In the case of `Cc1cc(NC(=O)c2c(C)c(C(=O)C(=O)N[C@H](C(=O)O)C3CCCCC3)n(C)c2C)ccc1F` [Example 68, (S)-2-cyclohexyl-2-(2-(4-((4-fluoro-3-methylphenyl)carbamoyl)-1,3,5-trimethyl-1H-pyrrol-2-yl)-2-oxoacetamido)acetic acid], the pEC50 [1] was < 6.00 and the CC50 at 7 days [2] was > 30 µM.
With `Cc1cc(NC(=O)c2c(C)c(C(=O)C(=O)N[C@@H](C(=O)O)C(C)C)n(C)c2C)ccc1F` [Example 101, (2-(4-((4-fluoro-3-methylphenyl)carbamoyl)-1,3,5-trimethyl-1H-pyrrol-2-yl)-2-oxoacetyl)-D-valine] the pEC50 [1] was < 6.00 and the CC50 at 7 days [2] was 5 to 30 µM.
For `Cc1c(C(=O)Nc2ccc(F)cc2)c(C)n(C)c1C(=O)C(=O)N[C@H]1CC[C@@H](O)CC1` [Example 724], the pEC50 [1] was > 7.30 and the CC50 at 7 days [2] was > 30 µM.
With `Cc1cc(NC(=O)c2c(C)c(C(=O)C(=O)NC3(CO)CCCCC3)n(C)c2C)ccc1F` [Example 599, N-(4-fluoro-3-methylphenyl)-5-(2-((1-(hydroxymethyl)cyclohexyl)amino)-2-oxoacetyl)-1,2,4-trimethyl-1H-pyrrole-3-carboxamide] the pEC50 [1] was > 7.30 and the CC50 at 7 days [2] was > 30 µM.
With `Cc1cc(NC(=O)c2c(C)c(C(=O)C(=O)NC3CC(=O)NC(=O)C3)n(C)c2C)ccc1F` [Example 610, 5-(2-((2,6-dioxopiperidin-4-yl)amino)-2-oxoacetyl)-N-(4-fluoro-3-methylphenyl)-1,2,4-trimethyl-1H-pyrrole-3-carboxamide] the pEC50 [1] was > 7.30 and the CC50 at 7 days [2] was > 30 µM.
In the case of `Cc1noc(C(NC(=O)C(=O)c2c(C)c(C(=O)Nc3ccc(F)c(C)c3)c(C)n2C)C2CCOCC2)n1` (stereo not drawn) [Example 85, N-(4-fluoro-3-methylphenyl)-1,2,4-trimethyl-5-(2-(((3-methyl-1,2,4-oxadiazol-5-yl)(tetrahydro-2H-pyran-4-yl)methyl)amino)-2-oxoacetyl)-1H-pyrrole-3-carboxamide], the pEC50 [1] was > 7.30 and the CC50 at 7 days [2] was > 30 µM.
With `Cc1cc(NC(=O)c2c(C)c(C(=O)C(=O)NC(C)(C)CO)n(CCF)c2C)cnc1F` [Example 222, N-(6-fluoro-5-methylpyridin-3-yl)-1-(2-fluoroethyl)-5-(2-((1-hydroxy-2-methylpropan-2-yl)amino)-2-oxoacetyl)-2,4-dimethyl-1H-pyrrole-3-carboxamide] the pEC50 [1] was < 6.00 and the CC50 at 7 days [2] was > 30 µM.
In the case of `Cc1c(C(=O)Nc2cccc(Cl)c2)c(C)n(C)c1C(=O)C(=O)N[C@]1(C)CC[C@@H](O)CC1` [Example 615, N-(3-chlorophenyl)-5-(2-(((1r,4r)-4-hydroxy-1-methylcyclohexyl)amino)-2-oxoacetyl)-1,2,4-trimethyl-1H-pyrrole-3-carboxamide], the pEC50 [1] was > 7.30 and the CC50 at 7 days [2] was > 30 µM.
For `Cc1cc(NC(=O)c2c(C)c(C(=O)C(=O)NC3(C(F)(F)F)CC3)n(C)c2C)cnc1F` [Example 234, N-(6-fluoro-5-methylpyridin-3-yl)-1,2,4-trimethyl-5-(2-oxo-2-((1-(trifluoromethyl)cyclopropyl)amino)acetyl)-1H-pyrrole-3-carboxamide], the pEC50 [1] was > 7.30 and the CC50 at 7 days [2] was > 30 µM.
In the case of `Cc1c(C(=O)Nc2nccs2)c2n(c1C(=O)C(=O)NC(C)(C)CO)CCCC2` [Example 759, 3-(2-((1-hydroxy-2-methylpropan-2-yl)amino)-2-oxoacetyl)-2-methyl-N-(thiazol-2-yl)-5,6,7,8-tetrahydroindolizine-1-carboxamide], the pEC50 [1] was 6.30 to 7.30 and the CC50 at 7 days [2] was > 30 µM.
In the case of `CC(=O)N1CC(C)(NC(=O)C(=O)c2c(C)c(C(=O)Nc3ccc(F)c(C)c3)c(C)n2C)C1` [Example 645, 5-(2-((1-acetyl-3-methylazetidin-3-yl)amno)-2-oxoacetyl)-N-(4-fluoro-3-methylphenyl)-1,2,4-trimethyl-1H-pyrrole-3-carboxamide], the pEC50 [1] was > 7.30 and the CC50 at 7 days [2] was > 30 µM.
For `Cc1c(C(=O)Nc2ccc(F)nc2)c(C)n(C)c1C(=O)C(=O)NC(C)(C)CN1CCOCC1` [Example 350, N-(6-fluoropyridin-3-yl)-1,2,4-trimethyl-5-(2-((2-methyl-1-morpholinopropan-2-yl)amino)-2-oxoacetyl)-1H-pyrrole-3-carboxamide], the pEC50 [1] was 6.00 to 6.30 and the CC50 at 7 days [2] was > 30 µM.
In the case of `Cc1cc(NC(=O)c2c(C)c(C(=O)C(=O)NC3(C)CCN(C(=O)c4ccnn4C)CC3)n(C)c2C)ccc1F` [Example 692, N-(4-fluoro-3-methylphenyl)-1,2,4-trimethyl-5-(2-((4-methyl-1-(1-methyl-1H-pyrazole-5-carbonyl)piperidin-4-yl)amino)-2-oxoacetyl)-1H-pyrrole-3-carboxamide], the pEC50 [1] was > 7.30 and the CC50 at 7 days [2] was > 30 µM.
With `Cc1c(C(=O)Nc2ccc(F)c(F)c2)c2n(c1C(=O)C(=O)N[C@H]1C[C@H](O)C1)CCCC2` [Example 456, N-(3,4-difluorophenyl)-3-(2-(((1r,3r)-3-hydroxycyclobutyl)amino)-2-oxoacetyl)-2-methyl-5,6,7,8-tetrahydroindolizine-1-carboxamide] the pEC50 [1] was 6.00 to 6.30 and the CC50 at 7 days [2] was > 30 µM.
For `Cc1cc(Cl)cc(NC(=O)c2c(C)c(C(=O)C(=O)N[C@H]3CNC(=O)C3)n(C)c2C)c1` [Example 684, (R)-N-(3-chloro-5-methylphenyl)-1,2,4-trimethyl-5-(2-oxo-2-((5-oxopyrrolidin-3-yl)amino)acetyl)-1H-pyrrole-3-carboxamide], the pEC50 [1] was > 7.30 and the CC50 at 7 days [2] was > 30 µM.
In the case of `Cc1cc(NC(=O)c2c(Cl)c(C(=O)C(=O)NCC(C)(C)CO)n3c2CCCC3)cnc1F` [Example 525, 2-chloro-N-(6-fluoro-5-methylpyridin-3-yl)-3-(2-((3-hydroxy-2,2-dimethylpropyl)amino)-2-oxoacetyl)-5,6,7,8-tetrahydroindolizine-1-carboxamide], the pEC50 [1] was < 6.00 and the CC50 at 7 days [2] was > 30 µM.
For `Cc1cc(NC(=O)c2c(C)c(C(=O)C(=O)N[C@]3(C)C[C@H](O)C3)n(C)c2C)ccc1F` [Example 267, N-(4-fluoro-3-methylphenyl)-5-(2-(((1s,3s)-3-hydroxy-1-methylcyclobutyl)amino)-2-oxoacetyl)-1,2,4-trimethyl-1H-pyrrole-3-carboxamide], the pEC50 [1] was > 7.30 and the CC50 at 7 days [2] was > 30 µM.
For `Cc1cc(NC(=O)c2c(C)c(C(=O)C(=O)Nc3ccc(F)cn3)n(C)c2C)cnc1F` [Example 338, N-(6-fluoro-5-methylpyridin-3-yl)-5-(2-((5-fluoropyridin-2-yl)amino)-2-oxoacetyl)-1,2,4-trimethyl-1H-pyrrole-3-carboxamide], the pEC50 [1] was 6.00 to 6.30 and the CC50 at 7 days [2] was > 30 µM.
